{"source": "paper PMC10979003", "about": "“Development and crystal structures of a potent second-generation dual degrader of BCL-2 and BCL-xL” (Nature Communications, 2024)", "key": {"BCL-xL": {"target": "T1, BCL-xL (Homo sapiens, UniProt Q07817)", "T1 construct": "endogenous in cells; host or cells: Jurkat (ATCC TIB-152)", "assay": "Immunoblot degradation of BCL-xL in Jurkat cells", "type": "cell-based", "details": "for DC50: 16 h treatment, immunoblot", "description": "The data are presented as mean ± s.d. from three replicate cell cultures in a representative experiment for Jurkat cells. h Left, WH244 induces polyubiquitination of WT, K22R BCL-2 and to some extent K17R but not K17/22R BCL-2 in 293T cells. 293T cells were co-transfected as indicated with Flag-BCL−2 WT or mutants and HA-tagged ubiquitin (HA-Ub) plasmids. After 36 h, cells were pretreated with MG132 (10 µM) for 2 h and then treated with or without WH244 (1 μM) for 5 h. The Flag-tagged proteins were immunoprecipitated (IP) and immunoblotted with HA or Flag antibody. Right, The input blot for this assay. Data are a representative of two independent experiments. Source data are provided as Source Data file.\nCells were collected, washed once with ice-cold phosphate-buffered saline, pH 7.2 (PBS, cat. no. 20012027; Thermo Fisher Scientific) and lysed in RIPA lysis buffer (Cat. No. BP-115DG, Boston Bio Products, Ashland, MA, USA) supplemented with protease and phosphatase inhibitor cocktails (Cat. No. PPC1010, Sigma-Aldrich, St. Louis, MO, USA) through sonication. The samples were centrifuged at 15,000 × g for 5 min and the supernatants were transferred into a new tube. The protein concentration in the supernatants was determined using the Pierce BCA protein Assay kit (cat. no. 23225, Thermo Fisher Scientific). The protein concentration was normalized, and the samples were reduced in 4× Laemmli’s SDS-sample buffer (cat. no. BP-110R, Boston Bio Products) and denatured at 95 °C for 5 min. An equal amount of protein samples (20–40 μg per lane) were resolved using precast 4–20% Tris-glycine gels (Mini-PROTEAN TGX, cat. no. 456–1094, Bio-Rad), and resolved proteins were transferred onto 0.2-μm pore size polyvinylidene difluoride (PVDF) blotting membranes (cat. no. LC2002, Thermo Fisher Scientific) using mini trans-blot electrophoretic transfer cell (Bio-Rad). The membranes were blocked with non-fat dry milk (5% wt/vol) in 1×Tris- buffered saline-Tween-20 (TBST) for 1 h at room temperature, and were subsequently probed with primary antibodies at a pre-determined optimal concentration in non-fat dry milk (5% wt/vol in TBST) overnight at 4 °C. The membranes were washed three times (15 min each) in TBST and then incubated with horse radish peroxidase (HRP)-conjugated secondary antibodies for 1 h at room temperature. Following sufficient washing with TBST, the membranes were exposed with ECL Western Blotting Substrate (Bio-Rad), and the signal was detected using the ChemiDoc MP Imaging System (Bio-Rad) and quantified using the ImageJ (v1.53a) software from NIH. Antibodies were purchased from Cell Signaling Technologies (CST) and the dilutions are as follows: BCL-xL (Cat. No. 2762S, 1:1000) and BCL-2 (Cat. No. 2870S, 1:1000). β-actin antibody was purchased from MP Biomedicals (Cat. No. 8691001, 1:20,000)."}, "Jurkat cells": {"tested_on": "Jurkat cells", "assay": "TMT-based proteomics in Jurkat cells", "type": "cell-based, human", "details": "100 nM, 8 h", "description": "To further assess the cellular selectivity of 753b and WH244 for BCL-xL/BCL-2 proteins, multiplexed tandem mass tag (TMT) labeling mass spectrometry proteomic experiments were performed to monitor protein levels in an unbiased fashion. Jurkat cells were treated in triplicate with DMSO, 100 nM 753b or 100 nM WH244 for 8 h (Supplementary Fig. 10b). […] To assess BCL-xL and BCL-2 degradation, we utilized western blotting with the same samples, and successfully verified the degradation of both BCL-xL and BCL-2 proteins induced by 753b and WH244, respectively (Supplementary Fig. 10c). We speculate that these apparently contradictory results may be attributable to some of the limitations of TMT technology, where low TMT-labeling efficiency for some proteins and peptides, can lead to inability to detect these proteins by TMT-based proteomics analysis. This limitation has been observed in several other reported PROTAC studies[52],[53]. […]\nProteins were identified and MS3 reporter ions quantified using MaxQuant (version 2.2.0.0; Max Planck Institute) against the Homo sapiens UniprotKB database (March 2023) with a parent ion tolerance of 3 ppm, a fragment ion tolerance of 0.5 Da, and a reporter ion tolerance of 0.003 Da. […] Protein TMT MS3 reporter ion intensity values were assessed for quality using ProteiNorm for a systematic evaluation of normalization methods. […]"}}}
{"smiles": "Cc1ncsc1-c1ccc(C(C)NC(=O)C2CC(O)CN2C(=O)C(NC(=O)CCCCCCC(=O)N2CCN(CC3(C)CCC(c4ccc(Cl)cc4)=C(CN4CCN(c5ccc(C(=O)NS(=O)(=O)c6ccc(NC(CCN7CCOCC7)CSc7ccccc7)c(S(=O)(=O)C(F)(F)F)c6)cc5)CC4)C3)CC2)C(C)(C)C)cc1", "note": "(centres unmarked) [753b]", "values": [{"measurement": "DC50", "setting": "BCL-xL; Jurkat cells", "value": 3.7, "unit": "nM"}, {"measurement": "Proteins significantly down-regulated among approximately 6000 identified", "setting": "Jurkat cells", "value": "none of which exhibited significant down-regulation"}]}
{"smiles": "Cc1ncsc1-c1ccc([C@H](C)NC(=O)[C@@H]2C[C@@H](O)CN2C(=O)[C@@H](NC(=O)CN2CCN(CC(=O)N3CCN(C[C@]4(C)CCC(c5ccc(Cl)cc5)=C(CN5CCN(c6ccc(C(=O)NS(=O)(=O)c7ccc(N[C@H](CCN8C[C@@H]9C[C@H]8CO9)CSc8ccccc8)c(S(=O)(=O)C(F)(F)F)c7)cc6)CC5)C4)CC3)CC2)C(C)(C)C)cc1", "note": "[WH244]", "values": [{"measurement": "Earliest time at which BCL-xL degradation is seen", "setting": "BCL-xL; 0.1 μM WH244, Jurkat cells", "value": 1, "unit": "h"}, {"measurement": "Time to nearly complete degradation of BCL-xL", "setting": "BCL-xL; 0.1 μM WH244, Jurkat cells", "value": 4, "unit": "h"}, {"measurement": "Time for BCL-xL level to recover to pretreatment level after removal of degrader", "setting": "BCL-xL; 0.1 μM WH244 for 16 h, then fresh medium, Jurkat cells", "value": "24 to 48", "unit": "h"}, {"measurement": "DC50 fold better than 753b (BCL-xL)", "setting": "BCL-xL; Jurkat cells, 16 h", "value": "~ 6.2 fold"}, {"measurement": "DC50", "setting": "BCL-xL; Jurkat cells", "value": 0.6, "unit": "nM"}, {"measurement": "Proteins significantly down-regulated among approximately 6000 identified", "setting": "Jurkat cells", "value": "none of which exhibited significant down-regulation"}]}
